Assay results taken from article PMC7645366 (EMBO Molecular Medicine, 2020).
Where “and” joins values, the source holds several entries; their conditions need not be identical. Equal entries are not always repeated. Where two headings read alike, the source gives them in different places. No end group written: not given here.

Tests used:
S. pyogenes type M1T1 = assay: Co-localization of intracellular S. pyogenes with MRC-1 and LC3B in DCs; assay type: cell-based, Streptococcus pyogenes; conditions: 100 μM peptide
S.pneumoniae T4R = assay: Co-localization of intracellular T4R with MRC-1 and LC3B in DCs; assay type: cell-based, Streptococcus pneumoniae; conditions: for % bacteria colocalized with MRC-1 / % bacteria colocalized with LC3B / number of bacteria (of n=50) colocalized with LC3B / number of bacteria (of n=50) colocalized with MRC-1: T4R in DCs
[1] = tested on: PLY‐producing pneumococcal strain T4; assay: Binding of FITC-labeled peptides to pneumococci, fluorescence microscopy; design: species or system Streptococcus pneumoniae
PLY [2] = biological target: T1, PLY (Streptococcus pneumoniae serotype 4, UniProt P0C2J9); assay type: cell-based
T1 sequence (P0C2J9 whole entry, looked up): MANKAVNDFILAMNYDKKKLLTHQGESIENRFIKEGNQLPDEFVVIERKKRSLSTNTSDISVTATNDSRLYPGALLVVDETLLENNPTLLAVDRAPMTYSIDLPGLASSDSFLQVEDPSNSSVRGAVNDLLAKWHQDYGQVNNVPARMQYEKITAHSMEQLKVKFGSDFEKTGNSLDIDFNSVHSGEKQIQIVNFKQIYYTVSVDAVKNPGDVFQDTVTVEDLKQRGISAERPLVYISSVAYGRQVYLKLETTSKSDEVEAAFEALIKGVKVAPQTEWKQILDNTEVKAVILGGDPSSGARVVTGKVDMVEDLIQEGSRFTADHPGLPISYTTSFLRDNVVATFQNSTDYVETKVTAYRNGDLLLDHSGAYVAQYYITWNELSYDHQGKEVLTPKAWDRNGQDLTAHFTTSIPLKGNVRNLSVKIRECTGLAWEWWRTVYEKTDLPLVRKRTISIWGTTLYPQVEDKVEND

PLY [3] = biological target: T1, PLY; assay type: cell-based; remark: listed apart in the source
PLY [4] = biological target: T1, PLY; assay type: cell-based; remark: listed apart in the source
SLO = SLO (Streptococcus pyogenes serotype M1, UniProt P0C0I3); assay type: cell-based
Sequence of SLO (P0C0I3 34-571 limits assumed): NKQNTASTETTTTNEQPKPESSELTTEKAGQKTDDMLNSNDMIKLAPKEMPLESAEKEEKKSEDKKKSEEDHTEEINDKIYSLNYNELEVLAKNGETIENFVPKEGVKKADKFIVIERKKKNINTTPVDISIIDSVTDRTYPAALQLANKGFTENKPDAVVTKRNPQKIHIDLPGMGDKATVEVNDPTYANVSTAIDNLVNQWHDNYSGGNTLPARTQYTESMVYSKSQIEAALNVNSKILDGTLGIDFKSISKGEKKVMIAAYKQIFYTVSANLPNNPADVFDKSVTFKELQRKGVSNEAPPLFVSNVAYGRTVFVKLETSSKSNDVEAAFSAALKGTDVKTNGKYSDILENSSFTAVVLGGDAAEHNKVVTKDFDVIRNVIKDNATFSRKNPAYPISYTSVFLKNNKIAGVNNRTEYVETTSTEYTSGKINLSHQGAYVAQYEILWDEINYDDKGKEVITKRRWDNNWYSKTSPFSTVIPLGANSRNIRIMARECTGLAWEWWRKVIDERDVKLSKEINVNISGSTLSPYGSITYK

S. pneumoniae T4 [5] = assay: Bacterial invasion assay, 3D lung epithelial models, CFU after gentamicin; assay type: cell-based, Streptococcus pneumoniae; conditions: for Mean Colonies at 100X dil, bacterial invasion of lung epithelium models / % entry bacteria= (bacteria uptaken/Input)*100: T4, MOI 10, 2h, 100 μM peptide
PLY [6] = biological target: T1, PLY; assay type: cell-based; remark: listed apart in the source
LLO [7] = biological target: T2, LLO (Listeria monocytogenes serovar 1/2a, UniProt P13128); assay: ELISA, binding of plate-bound MRC-1 peptides to LLO; conditions: plate-bound peptide, LLO 0–0.5 μM
T2 sequence (P13128 25-529): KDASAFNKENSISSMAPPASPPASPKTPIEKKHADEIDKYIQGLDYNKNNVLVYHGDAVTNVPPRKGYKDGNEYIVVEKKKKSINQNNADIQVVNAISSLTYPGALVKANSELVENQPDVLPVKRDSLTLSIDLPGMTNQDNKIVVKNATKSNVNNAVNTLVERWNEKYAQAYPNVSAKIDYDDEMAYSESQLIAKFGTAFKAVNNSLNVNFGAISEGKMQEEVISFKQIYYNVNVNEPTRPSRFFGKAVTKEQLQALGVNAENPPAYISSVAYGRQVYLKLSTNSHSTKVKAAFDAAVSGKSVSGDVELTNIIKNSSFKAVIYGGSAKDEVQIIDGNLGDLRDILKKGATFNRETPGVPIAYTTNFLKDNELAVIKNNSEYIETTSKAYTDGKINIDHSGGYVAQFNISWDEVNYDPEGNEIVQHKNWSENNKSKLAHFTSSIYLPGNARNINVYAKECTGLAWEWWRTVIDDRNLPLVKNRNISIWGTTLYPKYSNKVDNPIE
Protocol: Briefly, 96‐well flat‐bottomed plates (Sigma, UK) were coated overnight with 10 μM of MRC‐1 peptides in coating buffer (15 mM Na2CO3, 35 mM NaHCO3, pH 9.6). Wells were blocked with 200 μl of 10% (v/v) FBS in PBS for 2 h and then washed three times with PBS, 0.05% (v/v) Tween 20 (Sigma). 50 μl of purified PLY, LLO, and SLO (0–1 μM) in PBS was added and incubated at 37°C for 1 h. 1 μM BSA was added to control wells. Wells were washed with PBS and bound proteins were detected by adding 100 μl of mouse α‐PLY (1:1,000), mouse α‐SLO (1:400), and rabbit α‐LLO (1:1,500) (Abcam), respectively, in blocking buffer. Plates were incubated with 100 μl of secondary anti‐rabbit/anti‐mouse IgG HRP (1:2,000) dilution in blocking buffer. Bound antibodies were detected by adding 100 μl of tetramethylbenzidine substrate solution for 30 min. Phosphoric acid (1 M) was used as the stop solution and absorbance was measured at 450 nm.

L. monocytogenes type 1 = assay: Hemolytic activity of whole bacteria, L. monocytogenes; assay type: cell-based, Listeria monocytogenes; conditions: 100 μM peptide
Protocol: All samples were assayed in triplicates.

PLY [8] = biological target: T1, PLY; conditions: for % cytotoxicity relative to positive control (lysis buffer), LDH: 18 h
PLY [9] = biological target: T1, PLY; assay type: binding
LLO [10] = biological target: T2, LLO; assay: LDH cytotoxicity assay, THP-1 macrophages, LLO; assay type: cell-based; conditions: 100 μM, 18 h; for % cytotoxicity relative to positive control (lysis buffer), LDH: THP-1, LLO 0.5 μg/ml
Protocol: Human monocytic leukemia THP‐1 cells (ATCC TIB‐202) were cultivated in R10 medium and maintained at density of 10^6 cells/ml. For differentiation into macrophages, THP‐1 cells were treated for 48 h with 20 ng/ml of phorbol myristate acetate (Sigma).
Cytotoxicity was determined by measuring the activity of lactate dehydrogenase enzyme released into the culture supernatant using the Cytotoxicity Detection kit (Roche) according to the manufacturer's instructions. The percentage cytotoxicity was calculated by ratio to 100% lysis control (0.1% saponin).

S. pneumoniae T4 [11] = assay: Mouse intranasal infection (pneumonia) model: survival, lung bacterial load, lung cytokines
Protocol: Six‐week‐old male C57BL/6 wild‐type mice were used (Charles River, Germany). The study included 10 mice/individual group which were randomly assigned to the different treatment groups. Sample size calculations were determined according to previous experience (Subramanian et al, 2019b). […] The mice were checked at least twice every day; morning at 9 am (referred as “early check”) and evening at 7 pm (referred as “late check”). Post‐mortem, lungs were collected and washed in PBS and homogenized by passing through the 100‐μm cell strainer. Bacterial counts were determined from lung homogenates by viable count on blood agar plates. Aliquots of lung homogenates were frozen at −80°C for cytokine quantification by ELISA.
The levels of TNF‐α, IL‐8, and IL‐12 (p70) in the culture supernatants and mouse lung tissue were analyzed using the OptEIA ELISA kit (BD Biosciences) following the manufacturer's instructions.

PLY [12] = biological target: T1, PLY; assay type: cell-based; remark: listed apart in the source

With FTWSDGSPVSYEN [P2] the “co-staining of intracellular S. pyogenes M1T1 with LC3B” value (S. pyogenes type M1T1) was “co‐stained with LC3B”, the “co-localization of intracellular T4R with MRC‐1 and LC3B” value (S.pneumoniae T4R; DCs, 100 μM peptide) was “did not co‐localize with MRC‐1, but co‐stained with LC3B” and the “% bacteria colocalized with MRC-1” value (S.pneumoniae T4R; MOI 10, 100 μM peptide, n=50 bacteria, experiment 1 of 2) was 30%. For the same sequence, the “% bacteria colocalized with LC3B” value (S.pneumoniae T4R; experiment 1 of 2) was 70%, the “number of bacteria (of n=50) colocalized with LC3B” value (S.pneumoniae T4R; experiment 1 of 2) was 35 and the “number of bacteria (of n=50) colocalized with MRC-1” value (S.pneumoniae T4R; experiment 1 of 2) was 15. For the same sequence, the “% bacteria colocalized with LC3B” value (S.pneumoniae T4R; experiment 2 of 2) was 76%, the “% bacteria colocalized with MRC-1” value (S.pneumoniae T4R; experiment 2 of 2) was 24% and the “number of bacteria (of n=50) colocalized with LC3B” value (S.pneumoniae T4R; experiment 2 of 2) was 38. For the same sequence, the “number of bacteria (of n=50) colocalized with MRC-1” value (S.pneumoniae T4R; experiment 2 of 2) was 12, the “binding of FITC-labeled peptide to PLY mutant T4Δply” value ([1]; fluorescence microscopy) was “not to the PLY‐deficient strain” and the “binding of FITC-labeled peptide to pneumococcal strain T4” value ([1]; fluorescence microscopy) was “bound to T4”. For the same sequence, the “binding of FITC-labelled peptide to capsular mutant strain T4R” value ([1]; response to reviewers, Figure 4) was “binds to T4R”, the “cytolysis by PLY in live imaging” value (PLY [2]) was “protection from cytolysis” and the “loss of GFP expression in 3D lung epithelial model” value (PLY [3]) was “significantly lower”. The “release of IL‐8 and TNF‐α in lung tissue model” value (PLY [4]) was “significantly reduced release”, the “cytolysis by SLO in live imaging” value (SLO) was “protected the cells from cytolysis” and the “number of invading bacteria in 3D lung epithelial model” value (S. pneumoniae T4 [5]; T4, 100 μM peptide, 2 h) was “significantly reduced”. The “Mean Colonies at 100X dil, bacterial invasion of lung epithelium models” value (“Mean Colonies at 100X dil” for short) (S. pneumoniae T4 [5]; biological replicate n=1) was 13.3, the “% entry bacteria= (bacteria uptaken/Input)*100” value (S. pneumoniae T4 [5]; n=1) was 2.25% and the “% entry bacteria= (bacteria uptaken/Input)*100” value (S. pneumoniae T4 [5]; n=2) was 2.59%. For the same sequence, the “Mean Colonies at 100X dil” value (S. pneumoniae T4 [5]; n=2) was 15.3, the “% entry bacteria= (bacteria uptaken/Input)*100” value (S. pneumoniae T4 [5]; n=3) was 2.54% and the “Mean Colonies at 100X dil” value (S. pneumoniae T4 [5]; n=3) was 15. The “LDH release of 3D lung tissue model” value (PLY [6]) was “significantly reduced”, the “binding to LLO in ELISA” value (LLO [7]) was “bound dose‐dependently” and the “hemolytic activity of L. monocytogenes type 1” value (L. monocytogenes type 1) was “significantly reduced”. For the same sequence, the “cell death of macrophages induced by PLY, LDH release” value (PLY [8]) was “significantly reduced cell death”, the “% cytotoxicity relative to positive control (lysis buffer), LDH” value (PLY [8]; 100 μM) was 50.12% and 52.81% and 49.35% and the “% cytotoxicity relative to positive control (lysis buffer), LDH” value (PLY [8]) was 52.47%. The “binding to PLY in ELISA” value (PLY [9]) was “bind dose‐dependently”, the “cell death of macrophages induced by LLO, LDH release” value (LLO [10]; THP-1, 0.5 μg/ml toxin) was “significantly reduced cell death” and the “% cytotoxicity relative to positive control (lysis buffer), LDH” value (LLO [10]; experiment 1 of 4) was 50.96%. For the same sequence, the “% cytotoxicity relative to positive control (lysis buffer), LDH” value (LLO [10]; experiment 2 of 4) was 55.95%, the “% cytotoxicity relative to positive control (lysis buffer), LDH” value (LLO [10]; experiment 3 of 4) was 54.18% and the “% cytotoxicity relative to positive control (lysis buffer), LDH” value (LLO [10]; experiment 4 of 4) was 52.24%. For the same sequence, the “Mouse survival, death recorded” value (S. pneumoniae T4 [11]; Mouse 1 of its group) was 1, the “Mouse survival, Time (coded)” value (S. pneumoniae T4 [11]; Mouse 1 of its group, intranasal 2 × 10^6 CFU T4 with 5 μg peptide/mouse (25 μg CaP NPs)) was 4 and the “CFU/ml in mouse lung homogenates” value (S. pneumoniae T4 [11]; Mouse 2 of its group) was 160000000 CFU/ml. The “Mouse survival, Time (coded)” value (S. pneumoniae T4 [11]; Mouse 2 of its group) was 4, the “Mouse survival, death recorded” value (S. pneumoniae T4 [11]; Mouse 2 of its group) was 1 and the “CFU/ml in mouse lung homogenates” value (S. pneumoniae T4 [11]; Mouse 3 of its group) was 160000000 CFU/ml. The “Mouse survival, Time (coded)” value (S. pneumoniae T4 [11]; Mouse 3 of its group) was 5, the “Mouse survival, death recorded” value (S. pneumoniae T4 [11]; Mouse 3 of its group) was 1 and the “CFU/ml in mouse lung homogenates” value (S. pneumoniae T4 [11]; Mouse 4 of its group) was 180000000 CFU/ml. The “Mouse survival, Time (coded)” value (S. pneumoniae T4 [11]; Mouse 4 of its group) was 6, the “Mouse survival, death recorded” value (S. pneumoniae T4 [11]; Mouse 4 of its group) was 0 and the “CFU/ml in mouse lung homogenates” value (S. pneumoniae T4 [11]; Mouse 5 of its group) was 100000000 CFU/ml. The “Mouse survival, Time (coded)” value (S. pneumoniae T4 [11]; Mouse 5 of its group) was 4, the “Mouse survival, death recorded” value (S. pneumoniae T4 [11]; Mouse 5 of its group) was 1 and the “CFU/ml in mouse lung homogenates” value (S. pneumoniae T4 [11]; Mouse 6 of its group) was 2.6E+07 CFU/ml. For the same sequence, the “Mouse survival, Time (coded)” value (S. pneumoniae T4 [11]; Mouse 6 of its group) was 4, the “Mouse survival, death recorded” value (S. pneumoniae T4 [11]; Mouse 6 of its group) was 1 and the “CFU/ml in mouse lung homogenates” value (S. pneumoniae T4 [11]; Mouse 7 of its group) was 2.5E+07 CFU/ml. The “Mouse survival, Time (coded)” value (S. pneumoniae T4 [11]; Mouse 7 of its group) was 4, the “Mouse survival, death recorded” value (S. pneumoniae T4 [11]; Mouse 7 of its group) was 1 and the “CFU/ml in mouse lung homogenates” value (S. pneumoniae T4 [11]; Mouse 8 of its group) was 1.7E+07 CFU/ml. The “Mouse survival, Time (coded)” value (S. pneumoniae T4 [11]; Mouse 8 of its group) was 4, the “Mouse survival, death recorded” value (S. pneumoniae T4 [11]; Mouse 8 of its group) was 1 and the “CFU/ml in mouse lung homogenates” value (S. pneumoniae T4 [11]; Mouse 9 of its group) was 1.7E+07 CFU/ml. For the same sequence, the “Mouse survival, Time (coded)” value (S. pneumoniae T4 [11]; Mouse 9 of its group) was 4, the “Mouse survival, death recorded” value (S. pneumoniae T4 [11]; Mouse 9 of its group) was 1 and the “CFU/ml in mouse lung homogenates” value (S. pneumoniae T4 [11]; Mouse 10 of its group) was 1.0E+07 CFU/ml. The “Mouse survival, Time (coded)” value (S. pneumoniae T4 [11]; Mouse 10 of its group) was 5, the “Mouse survival, death recorded” value (S. pneumoniae T4 [11]; Mouse 10 of its group) was 1 and the “IL-12 levels in mouse lung homogenates” value (S. pneumoniae T4 [11]; animal in data line 1) was 4502.5 pg/mL. For the same sequence, the “IL-12 levels in mouse lung homogenates” value (S. pneumoniae T4 [11]; animal in data line 2) was 3606.25 pg/mL, the “TNF-a levels in lung” value (S. pneumoniae T4 [11]; animal in data line 2) was 645.91 pg/mL and the “IL-12 levels in mouse lung homogenates” value (S. pneumoniae T4 [11]; animal in data line 3) was 5321.25 pg/mL. The “TNF-a levels in lung” value (S. pneumoniae T4 [11]; animal in data line 3) was 377.50 pg/mL, the “IL-12 levels in mouse lung homogenates” value (S. pneumoniae T4 [11]; animal in data line 4) was 8600 pg/mL and the “TNF-a levels in lung” value (S. pneumoniae T4 [11]; animal in data line 4) was 853.64 pg/mL. The “IL-12 levels in mouse lung homogenates” value (S. pneumoniae T4 [11]; animal in data line 5) was 7346.25 pg/mL, the “TNF-a levels in lung” value (S. pneumoniae T4 [11]; animal in data line 5) was 703.86 pg/mL and the “IL-12 levels in mouse lung homogenates” value (S. pneumoniae T4 [11]; animal in data line 6) was 6002.5 pg/mL. The “TNF-a levels in lung” value (S. pneumoniae T4 [11]; animal in data line 6) was 679.08 pg/mL, the “IL-12 levels in mouse lung homogenates” value (S. pneumoniae T4 [11]; animal in data line 7) was 5505 pg/mL and the “TNF-a levels in lung” value (S. pneumoniae T4 [11]; animal in data line 7) was 828.95 pg/mL. For the same sequence, the “IL-12 levels in mouse lung homogenates” value (S. pneumoniae T4 [11]; animal in data line 8) was 3275 pg/mL, the “TNF-a levels in lung” value (S. pneumoniae T4 [11]; animal in data line 8) was 612.89 pg/mL and the “IL-12 levels in mouse lung homogenates” value (S. pneumoniae T4 [11]; animal in data line 9) was 4967.5 pg/mL. The “TNF-a levels in lung” value (S. pneumoniae T4 [11]; animal in data line 9) was 782.63 pg/mL, the “IL-12 levels in mouse lung homogenates” value (S. pneumoniae T4 [11]; animal in data line 10) was 8335 pg/mL and the “TNF-a levels in lung” value (S. pneumoniae T4 [11]; animal in data line 10) was 757.37 pg/mL. For the same sequence, the “levels of TNF‐α and IL‐12 in the lung tissue” value (S. pneumoniae T4 [11]; infected mice) was “significantly reduced”, the “TNF-a levels in lung” value (S. pneumoniae T4 [11]; infected mice, post‐sacrifice, animal in data line 1) was 263.18 pg/mL and the “mouse survival” value (S. pneumoniae T4 [11]; intranasal T4 2 × 10^6 CFUs, 5 μg peptide/mouse) was “prolonged survival”. The “CFU/ml in mouse lung homogenates” value (S. pneumoniae T4 [11]; post‐mortem, Mouse 1 of its group) was 160000000 CFU/ml and the “release of IL‐8, TNF‐α and IL‐12 by THP-1 macrophages, PLY” value (PLY [12]) was “significantly reduced”.
